For assay [1], the system named is MCP-1/CCL2. The assay is described as follows: MCP-1/CCL2 mRNA and protein expression in pig myocardium. The assay is classed as in vivo, pigs. The protocol:
The myocardium of pigs included in Example 1 and Example 2 was obtained, pulverized and processed with Tripure or lyses buffer for mRNA and protein isolation as detailed in Example 5 and Example 6, respectively. Both the mRNA levels and protein expression of MCP-1 were assessed. The threshold cycle (Ct) values were determined and normalized to the housekeeping gene 18 SrRNA in order to adjust for equal amounts of RNA whereas β-actin was used as protein loading control.

For assay [2], the system named is rat model for ischemia. Description: Rat model of myocardial infarction by coronary ligation: scar size 30 days after ischemia. It counts as in vivo, male SD rats. As to conditions: single dose 0.3 mg/kg 15 min after onset of ischemia; 30 days post-ischemia induction; vs vehicle-controls. How it is done: The study was performed in male SD rats (8-10 weeks old, weighing 250-300 g; Jackson Laboratory). MI was induced by LAD coronary artery ligation for 45 min. […] Afterwards hearts were carefully excised for morphometric assessment of infarct size.

Assay [3] concerns hypercholesterolemic pigs with myocardial ischemia. The assay is described as follows: Neutrophil infiltration (anti-Neutrophil Elastase staining) in ischemic myocardium of hypercholesterolemic pigs. The assay is classed as in vivo. The following applies: single i.v. dose 15 min after onset of ischemia, vs controls. The protocol: To this end, ischemic myocardial tissue of all hypercholesterolemic pigs included in Example 12 was obtained, embedded in OCT, and stained for neutrophils detection (anti-Neutrophil Elastase; Abcam). Staining was calculated by a single blinded observer from an average of 5-fields/animal as % of stained area. Images were captured by Nikon Eclipse 80i microscope and digitized by Retiga 1300i Fast camera.

Assay [4] relates to TLR4, TF and MCP-1 in PBMC. Description: TLR4, TF and MCP-1 expression in circulating PBMC of ischemic pigs. It counts as in vivo. How it is done: Blood samples were also collected in EDTA at baseline (prior to ischemia) and after 90 min of ischemia from the femoral artery for PBMC isolation by the Ficoll method. To this end, 20 ml of blood were collected into EDTA tubes at three tested time-points (0, 30, and 90 min) in all animals. All blood samples were immediately subjected to Ficoll-paque Plus (Amersham Biosciences) density gradient centrifugation to isolate PBMCs. Samples were counted and then directly frozen in liquid nitrogen and stored at −80° C. until mRNA and protein isolation as described in Example 5 and Example 6. The mRNA expression level of the inflammatory markers related to innate immunity TLR4 (Toll-like receptor 4) and MCP-1, as well as […] (tissue factor) were determined by Real Time PCR analyses whereas protein expression of MCP-1 was also assessed. The threshold cycle (Ct) values were determined and normalized to the housekeeping gene 18SrRNA in order to adjust for equal amounts of RNA whereas Ponceau red was used for protein loading control.

Setting [5] is: ischemic myocardium, vs non-treated pigs.
The mark [6] stands for this setting: prior (0 min) or post (90 min) ischemic induction.

Data on one compound can be found in patent publication US20200030288A1, “STATIN FOR PREVENTION/REDUCTION OF ISCHEMIA-RELATED DAMAGE” (Fundacio Institut De Recerca De L'Hospial De La Santa Creu …, priority 2017, published 2020).

For the compound `CC(C)c1c(C(=O)Nc2ccccc2)c(-c2ccccc2)c(-c2ccc(F)cc2)n1CC[C@@H](O)C[C@@H](O)CC(=O)O` [atorvastatin], in assay [1] (setting [5]), the “MCP-1 mRNA expression” value is reported as “significantly reduced” and the MCP-1 protein expression result is listed as “significantly reduced”. In assay [1] (non-ischemic myocardial tissue), the MCP-1 expression entry is given as “No changes”. In addition, the “reduction in scar size” value in assay [2] was 60%. For the same compound, the “reduction in neutrophil myocardial infiltration” value in assay [3] is reported as 57%. In assay [4] (PBMC), the “ischemia-triggered increase in MCP-1 expression, gene level” value was “markedly attenuated” and the “ischemia-triggered increase in MCP-1 expression, protein level” value is given as “markedly attenuated”. In assay [4] (setting [6]), the “TF PBMC expression (mRNA)” value was “did not modify” and the “TLR4 PBMC expression (mRNA)” value is “did not modify”.
